From the supplement of paper PMC13380429

What was measured:
U2OS [1] = assay: cell viability relative to DMSO; higher = less toxic; conditions: 72 h
Vero E6 [2] = assay: as above; conditions: 72 h
Calu-3 [3] = assay: as above; conditions: 72 h
Caco-2 [4] = assay: as above; conditions: 72 h
HepG2 [5] = assay: as above; conditions: 72 h
U2OS [6] = assay: drug sensitivity score (DSS) for viability; higher = more toxic; extreme values may be limits of the assay; conditions: 72 h
Vero E6 [7] = assay: as above; conditions: 72 h
Calu-3 [8] = assay: as above; conditions: 72 h
Caco-2 [9] = assay: as above; conditions: 72 h
HepG2 [10] = assay: as above; conditions: 72 h
U2OS [11] = assay: relative viability EC50 (midpoint between 100% and the lowest measured viability); higher = less toxic; conditions: 72 h
Vero E6 [12] = assay: as above; conditions: 72 h
Calu-3 [13] = assay: as above; conditions: 72 h
Caco-2 [14] = assay: as above; conditions: 72 h
HepG2 [15] = assay: as above; conditions: 72 h
A549-ACE2 [16] = assay: phospholipidosis EC50; higher = less potent phospholipidosis inducer
[17] = test system: A549-ACE2 infected with SARS-CoV-2; assay: morphology score (similarity to uninfected cells); higher = more like uninfected cells; conditions: 24 h
[18] = test system: A549-ACE2 infected with SARS-CoV-2; assay: cell count relative to DMSO; higher = less toxic; conditions: 24 h
A549-ACE2 [19] = assay: drug-induced phospholipidosis relative to tamoxifen; higher = more phospholipidosis
[20] = test system: A549-ACE2 infected with SARS-CoV-2; assay: SARS-CoV-2 infection rate relative to DMSO; higher = more infection; conditions: 24 h

O=C1NCCNC1c1cccs1 (stereo not given) [tenilsetam]
cell viability [%]
Conditions | Caco-2 [4] | Calu-3 [3] | HepG2 [5] | U2OS [1] | Vero E6 [2]
1 nM | 105 | 92.3 | 106 | 103 | 97.2
10 nM | 95.1 | 98.2 | 106 | 96.3 | 103
100 nM | 103 | 100 | 96.4 | 104 | 90.1
1000 nM | 97.5 | 97.1 | 97.2 | 96.2 | 97.7
10000 nM | 97.4 | 99.1 | 92.3 | 102 | 101

Conditions | drug sensitivity score | relative viability EC50 [µM]
Caco-2 [9] | 0 | –
Caco-2 [14] | – | > 10
Calu-3 [8] | 0 | –
Calu-3 [13] | – | > 10
HepG2 [10] | 0 | –
HepG2 [15] | – | > 10
U2OS [6] | 0 | –
U2OS [11] | – | > 10
Vero E6 [7] | 0 | –
Vero E6 [12] | – | > 10

CN(C/C=C/C#CC(C)(C)C)Cc1cccc2ccccc12 [terbinafine]
cell viability [%]
Conditions | Caco-2 [4] | Calu-3 [3] | HepG2 [5] | U2OS [1] | Vero E6 [2]
1 nM | 93 | 103 | 99.4 | 103 | 104
10 nM | 81.1 | 102 | 91.9 | 98.9 | 94.2
100 nM | 90.5 | 106 | 101 | 95.3 | 109
1000 nM | 112 | 92.9 | 99.6 | 99.5 | 94.5
10000 nM | 88.5 | 114 | 89 | 102 | 95.6

Conditions | drug sensitivity score | relative viability EC50 [µM]
Caco-2 [9] | 0 | –
Caco-2 [14] | – | > 10
Calu-3 [8] | 0 | –
Calu-3 [13] | – | > 10
HepG2 [10] | 0 | –
HepG2 [15] | – | > 10
U2OS [6] | 0 | –
U2OS [11] | – | > 10
Vero E6 [7] | 0 | –
Vero E6 [12] | – | > 10

COc1ccc2cc1Oc1ccc(cc1)C[C@H]1c3cc(c(OC)cc3CCN1C)Oc1c(OC)c(OC)cc3c1[C@H](C2)N(C)CC3 [tetrandrine]
Conditions | SARS-CoV-2 infection rate [%] | cell count [%] | cell viability [%] | morphology score | phospholipidosis EC50 [µM]
A549-ACE2 [16], 24 h | – | – | – | – | 7
A549-ACE2 [16], 48 h | – | – | – | – | 10.2
A549-ACE2 [16], 72 h | – | – | – | – | 5.6
Caco-2 [4], 1 nM | – | – | 100 | – | –
Caco-2 [4], 10 nM | – | – | 97.9 | – | –
Caco-2 [4], 100 nM | – | – | 92.1 | – | –
Caco-2 [4], 1000 nM | – | – | 95.4 | – | –
Caco-2 [4], 10000 nM | – | – | 79.5 | – | –
Calu-3 [3], 1 nM | – | – | 88.3 | – | –
Calu-3 [3], 10 nM | – | – | 109 | – | –
Calu-3 [3], 100 nM | – | – | 91.3 | – | –
Calu-3 [3], 1000 nM | – | – | 99.9 | – | –
Calu-3 [3], 10000 nM | – | – | 29.1 | – | –
HepG2 [5], 1 nM | – | – | 104 | – | –
HepG2 [5], 10 nM | – | – | 102 | – | –
HepG2 [5], 100 nM | – | – | 97.7 | – | –
HepG2 [5], 1000 nM | – | – | 94.1 | – | –
HepG2 [5], 10000 nM | – | – | 71.5 | – | –
Vero E6 [2], 1 nM | – | – | 100 | – | –
Vero E6 [2], 10 nM | – | – | 94.2 | – | –
Vero E6 [2], 100 nM | – | – | 94.6 | – | –
Vero E6 [2], 1000 nM | – | – | 94.4 | – | –
Vero E6 [2], 10000 nM | – | – | 92.6 | – | –
[17], 0.3 µM | – | – | – | 0.37 | –
[17], 3 µM | – | – | – | 0.79 | –
[17], 10 µM | – | – | – | 0.07 | –
[17], 30 µM | – | – | – | -0.15 | –
[18], 0.3 µM | – | 106 | – | – | –
[18], 3 µM | – | 115 | – | – | –
[18], 10 µM | – | 119 | – | – | –
[18], 30 µM | – | 79 | – | – | –
[20], 0.3 µM | 92 | – | – | – | –
[20], 3 µM | 23 | – | – | – | –
[20], 10 µM | 21 | – | – | – | –
[20], 30 µM | 42 | – | – | – | –

drug-induced phospholipidosis [%], A549-ACE2 [19]
Conditions | 0.3 µM | 0.833333 µM | 3.33333 µM | 6.66667 µM | 10 µM | 30 µM
24 h | 16.2 | 29.5 | 61.4 | 78 | 92.7 | 115
48 h | 16.2 | 22.2 | 51.1 | 78.8 | 101 | 145
72 h | 8.49 | 16.5 | 49.2 | 80.6 | 103 | 176

Conditions | drug sensitivity score | relative viability EC50 [µM]
Caco-2 [9] | 0.7 | –
Caco-2 [14] | – | > 10
Calu-3 [8] | 3.9 | –
Calu-3 [13] | – | 3.15
HepG2 [10] | 2.1 | –
Vero E6 [7] | 0 | –
Vero E6 [12] | – | > 10

Clc1ccc(C(Cn2ccnc2)OCc2ccsc2Cl)c(Cl)c1 (stereo not given) [tioconazole]
cell viability [%]
Conditions | Caco-2 [4] | Calu-3 [3] | HepG2 [5] | U2OS [1] | Vero E6 [2]
1 nM | 106 | 103 | 108 | 100 | 100
10 nM | 95 | 92.8 | 100 | 97.2 | 104
100 nM | 93.5 | 102 | 112 | 96.9 | 99.8
1000 nM | 99 | 90.8 | 102 | 92.9 | 97
10000 nM | 81.2 | 99.5 | 90.7 | 93 | 101

Conditions | drug sensitivity score | relative viability EC50 [µM]
Caco-2 [9] | 0.6 | –
Caco-2 [14] | – | > 10
Calu-3 [8] | 0 | –
Calu-3 [13] | – | > 10
HepG2 [10] | 0 | –
HepG2 [15] | – | > 10
U2OS [6] | 0 | –
U2OS [11] | – | > 10
Vero E6 [7] | 0 | –
Vero E6 [12] | – | > 10

CC(=O)Nc1cccc(-n2c(=O)n(C3CC3)c(=O)c3c(Nc4ccc(I)cc4F)n(C)c(=O)c(C)c32)c1 [trametinib]
cell viability [%]
Conditions | Caco-2 [4] | Calu-3 [3] | HepG2 [5] | U2OS [1] | Vero E6 [2]
1 nM | 80.4 | 94.8 | 99.3 | 99.3 | 101
10 nM | 65.4 | 73.6 | 45.5 | 91.9 | 94.2
100 nM | 40.6 | 62 | 30.5 | 89.7 | 67.9
1000 nM | 21.3 | 33.8 | 25.3 | 60.8 | 15.7
10000 nM | 16 | 24.8 | 23.2 | 29.3 | 15.8

Conditions | drug sensitivity score | relative viability EC50 [µM]
Caco-2 [9] | 26.5 | –
Caco-2 [14] | – | 0.0156
Calu-3 [8] | 19 | –
Calu-3 [13] | – | 0.0536
HepG2 [10] | 30.5 | –
HepG2 [15] | – | 0.0064
U2OS [6] | 9 | –
U2OS [11] | – | 0.695
Vero E6 [7] | 19.2 | –
Vero E6 [12] | – | 0.129

CC(/C=C/C(=O)NO)=C\[C@@H](C)C(=O)c1ccc(N(C)C)cc1 [trichostatin-a]
cell viability [%]
Conditions | Caco-2 [4] | Calu-3 [3] | HepG2 [5] | U2OS [1] | Vero E6 [2]
1 nM | 97.3 | 107 | 101 | 99.7 | 98.7
10 nM | 101 | 103 | 93.1 | 95.4 | 94.4
100 nM | 37.1 | 89 | 84.2 | 77.3 | 44
1000 nM | 2.4 | 20.4 | 0.4 | 1 | -0.2
10000 nM | 3 | 7.5 | 0 | 0.7 | -0.1

Conditions | drug sensitivity score | relative viability EC50 [µM]
Caco-2 [9] | 24.9 | –
Caco-2 [14] | – | 0.0788
Calu-3 [8] | 16 | –
Calu-3 [13] | – | 0.336
HepG2 [10] | 20.6 | –
HepG2 [15] | – | 0.194
U2OS [6] | 21.4 | –
U2OS [11] | – | 0.162
Vero E6 [7] | 24.6 | –
Vero E6 [12] | – | 0.0838
